In one assay the target is T1, murine TLR7 (Mus musculus, UniProt P58681).
T1 construct: host or cells: HEK293 (ATCC, CRL-1573), HEK-Blue mTLR7
T1 sequence (P58681 27-1050): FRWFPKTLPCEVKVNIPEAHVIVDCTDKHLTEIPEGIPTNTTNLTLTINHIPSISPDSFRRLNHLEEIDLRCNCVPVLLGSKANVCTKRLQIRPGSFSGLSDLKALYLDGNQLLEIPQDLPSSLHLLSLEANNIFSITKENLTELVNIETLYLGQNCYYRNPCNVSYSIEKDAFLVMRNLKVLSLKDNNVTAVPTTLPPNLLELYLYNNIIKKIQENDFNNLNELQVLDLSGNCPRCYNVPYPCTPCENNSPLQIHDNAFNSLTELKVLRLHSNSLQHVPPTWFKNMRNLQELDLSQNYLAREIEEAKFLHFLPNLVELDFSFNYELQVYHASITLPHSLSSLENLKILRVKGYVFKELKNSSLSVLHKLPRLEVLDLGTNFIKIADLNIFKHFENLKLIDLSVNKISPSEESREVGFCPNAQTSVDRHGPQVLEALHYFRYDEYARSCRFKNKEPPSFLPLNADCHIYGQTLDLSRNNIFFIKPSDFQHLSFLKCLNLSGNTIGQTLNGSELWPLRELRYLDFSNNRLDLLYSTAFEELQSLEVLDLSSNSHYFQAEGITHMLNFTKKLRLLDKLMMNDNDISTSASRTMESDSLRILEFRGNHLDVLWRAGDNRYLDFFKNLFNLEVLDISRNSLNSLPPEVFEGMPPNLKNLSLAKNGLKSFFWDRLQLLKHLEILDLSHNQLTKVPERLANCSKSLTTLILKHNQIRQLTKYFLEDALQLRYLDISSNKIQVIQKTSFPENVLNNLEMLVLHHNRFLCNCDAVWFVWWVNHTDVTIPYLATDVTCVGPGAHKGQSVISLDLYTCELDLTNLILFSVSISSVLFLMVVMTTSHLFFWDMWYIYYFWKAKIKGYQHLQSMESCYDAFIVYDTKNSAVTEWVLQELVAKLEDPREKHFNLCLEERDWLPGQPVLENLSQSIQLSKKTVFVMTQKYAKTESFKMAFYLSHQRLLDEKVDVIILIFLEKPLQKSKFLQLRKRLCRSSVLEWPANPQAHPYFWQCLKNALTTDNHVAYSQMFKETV
Kind of assay: HEK-Blue mTLR7 NF-κB/AP-1-inducible SEAP reporter cell assay. It counts as cell-based. Particulars: Figure 2; 10 µg/mL to 10 pg/ml, 24 hours, SEAP read as OD at 655 nm. An excerpt:
Assays for detecting TLR7, TLR8 or TLR2 activity are known in the art and include for example cell-based assays using respectively TLR7, TLR8 or TLR2 reporter cell lines (InvivoGen). The reporter cell lines are engineered HEK293 cells, a human embryonic kidney cell line (ATCC, CRL-1573) that stably express either murine TLR7 (HEK-Blue™ mTLR7) or human TLR7 (HEK-Blue™ hTLR7), human TLR8 (HEK-Blue™ hTLR8) or human TLR2 (HEK- Blue™ hTLR2) with an NF-κB-inducible secreted embryonic alkaline phosphatase (SEAP) as the reporter gene.
(§1) Cell-based assays were carried out using TLR7 and TLR2 reporter cell lines (InvivoGen). The reporter cell lines are engineered HEK293 cells, a human embryonic kidney cell line (ATCC, CRL-1573) that stably express either murine TLR7 (HEK-Blue™ mTLR7) or human TLR7 (HEK-Blue™ hTLR7) or human TLR2 (HEK- Blue™ hTLR2) with an NF-κB-inducible secreted embryonic alkaline phosphatase (SEAP) as the reporter gene. The SEAP reporter gene is under the control of the NF-κB and AP-1-inducible promoter, which, upon treatment with a corresponding TLR ligand and activation of NF-κB and AP-1, induces the production of SEAP. Detection of SEAP is measured following culturing cells in HEK-Blue™ Detection media (InvivoGen). HEK-Blue™ Detection contains a SEAP substrate that when hydrolysed by SEAP produces a colorimetric change allowing for detection of SEAP as the protein is secreted. […] These assays were carried out using RAW-Blue™ Cells (InvivoGen), derived from RAW 264.7 mouse leukemic monocyte macrophage cell line (ATCC, CRL 2278) stably overexpressing a NF-κB /AP-1 inducible SEAP reporter constructs.
(§2) To perform the assay, cells were seeded on 96 well microliter plates at 50,000 or 100,000 cells per well for HEK-Blue™ Cells and RAW-Blue™ Cells respectively, and cultured at 37 °C in the presence of the conjugated compounds The TLR7-TLR2 polyamine molecules were prepared as follows: First, stock solutions of the conjugated compounds of the invention were prepared in ethanol or water to a concentration of 10 mg/ml.
(§3) The working dilutions of the conjugated TLR7-TLR2 polyamine agonists made up in water or PBS were directly added to the reporter cell lines at a final concentration ranging from 10 µg/mL to 10 pg/ml and incubated at 37 °C for 24 hours. After 24 hours of incubation, the effect on reporter gene activity was determined by reading the OD at 655 nm using iMark™ Microplate Reader (BIO-RAD).

In assay [1] the test system is endogenous TLR2 and TLR7 in RAW-Blue™ Cells. Kind of assay: RAW-Blue Cells NF-κB/AP-1 SEAP reporter assay (endogenous receptors). The format is cell-based, mouse. Particulars: Figure 4; 10 µg/mL to 10 pg/ml, 24 hours, SEAP read as OD at 655 nm. Here is the method: as §1, §2, §3
In another assay the test system is HEK293 cells. Kind of assay: Cell transfection with SEAP plasmid, HEK293. The format is cell-based, human. Conditions: Figure 5A; in complex with pVitro14 LGFP SEAP plasmid, 48 hours, SEAP reporter gene expression. Here is the method: The TLR7-TLR2 molecules were tested for their ability as polyamine molecules to transport plasmid DNA (pDNA) into cells. The pVitro14 LGFP SEAP plasmid (InvivoGen) was complexed to TLR7-TLR2 polyamine molecules and to the control cationic lipid transfection agent, LyoVec™ (InvivoGen). The human HEK293 (ATCC, CRL-1573) and mouse B16-F1 melanoma (ATCC, CRL-6323) cell lines were seeded at a density of 50 000 cells/well and 20 000 cells/well respectively, in the absence or presence of different volumes of the plasmid encoding for the SEAP protein in complex with TLR7-TLR2 polyamine molecules for 48 hours at 37°C and 10% CO2. Transfection efficiency was assessed by measuring SEAP reporter gene expression: 20 µl of supernatant was sampled and mixed with 180 µl of QUANTI-Blue™ Detection (InvivoGen). In the presence of alkaline phosphatase SEAP, the color of QUANTI-Blue™ changes from pink to purple/blue. The intensity of the blue hue reflects the activity of SEAP. The levels of SEAP secretion were determined quantitatively by reading the OD at 620-655 nm using a spectrophotometer, iMark™ Microplate Reader (BIO-RAD).

Each structure is given as a SMILES string.

For the compound `CCCCCCCCCCCCCCCC(=O)OCC(CSC[C@H](N)C(=O)N[C@@H](CCCCNC(=O)CNC(=O)c1ccc(Cn2c(O)nc3c(N)nc(NCCCC)nc32)cc1)C(=O)NCCCNCCCCNCCCN)OC(=O)CCCCCCCCCCCCCCC` (stereo partly drawn) [CL475, (6R,9S)-6,23-diamino-9-(4-(2-(4-((6-amino-2-(butylamino)-8-hydroxy-9H-purin-9-yl)methyl)benzamido)acetamido)butyl)-7,10-dioxo-4-thia-8,11,15,20-tetraazatrico sane-1,2-diyl dipalmitate], the “ability to activate mTLR7” value at murine TLR7 was “activate mTLR7”. For the same compound, the “ability to activate endogenous TLR2 and TLR7 in RAW-Blue™ Cells” value (“ability … in RAW-Blue™ Cells” for short) in assay [1] was “activate endogenous TLR2 and TLR7”.

In the case of `CCCCCCCCCCCCCCCC(=O)OCC(CSC[C@H](N)C(=O)NCCCC[C@H](NC(=O)c1ccc(Cn2c(O)nc3c(N)nc(NCCCC)nc32)cc1)C(=O)NCCCNCCCCNCCCN)OC(=O)CCCCCCCCCCCCCCC` (stereo partly drawn) [CL486, (6R,13S)-6,27-diamino-13-(4-((6-amino-2-(butylamino)-8-hydroxy-9H-purin-9-yl)methyl)benzamido)-7,14-dioxo-4-thia-8,15,19,24-tetraazaheptacosane-1,2-diyl dipalmitate], the “ability to activate mTLR7” value on murine TLR7 was “activate mTLR7”. Also, the “ability … in RAW-Blue™ Cells” value in assay [1] was “activate endogenous TLR2 and TLR7”.

On to `CCCCCCCCCCCCCCCC(=O)OCC(CSC[C@H](N)C(=O)NCCCC[C@H](NC(=O)CNC(=O)c1ccc(Cn2c(O)nc3c(N)nc(NCCCC)nc32)cc1)C(=O)NCCCNCCCCNCCCN)OC(=O)CCCCCCCCCCCCCCC` (stereo partly drawn) [CL487, (6R,13S)-6,27-diamino-13-(2-(4-((6-amino-2-(butylamino)-8-hydroxy-9H-purin-9-yl)methyl)benzamido)acetamido)-7,14-dioxo-4-thia-8,15,19,24-tetraazaheptacosane-1,2-diyl dipalmitate], for which the “ability to activate mTLR7” value on murine TLR7 is “activate mTLR7”. Moreover, the “ability … in RAW-Blue™ Cells” value in assay [1] is “activate endogenous TLR2 and TLR7”.

For the compound `CCCCCCCCCCCCCCCC(=O)OCC(CSC[C@H](N)C(=O)N[C@@H](COC(=O)c1ccc(Cn2c(O)nc3c(N)nc(NCCCC)nc32)cc1)C(=O)NCCCNCCCCNCCCN)OC(=O)CCCCCCCCCCCCCCC` (stereo partly drawn) [CL514, (6R,9S)-6,23-diamino-9-((4-((6-amino-2-(butylamino)-8-hydroxy-9H-purin-9-yl)methyl)benzoyloxy)methyl)-7,10-dioxo-4-thia-8,11,15,20-tetraazatricosane-1,2-diyl dipalmitate], on murine TLR7, the “ability to activate mTLR7” value is reported as “activate mTLR7”. The “ability … in RAW-Blue™ Cells” value in assay [1] was “activate endogenous TLR2 and TLR7”. In addition, the “ability to transfect HEK293 cells” value in the assay with HEK293 cells is reported as “transfect HEK293 cells”.

Consider `CCCCCCCCCCCCCCCC(=O)OCC(CSC[C@H](N)C(=O)N[C@@H](CCC(=O)NCCCNCCCCNCCCN)C(=O)Nc1ccc(Cn2c(O)nc3c(N)nc(NCCCC)nc32)cc1)OC(=O)CCCCCCCCCCCCCCC` (stereo partly drawn) [CL527, (6R,9S)-6,25-diamino-9-(4-((6-amino-2-(butylamino)-8-hydroxy-9H-purin-9-yl)methyl)phenylcarbamoyl)-7,12-dioxo-4-thia-8,13,17,22-tetraazapentacosane-1,2-diyl dipalmitate], for which the “ability to activate mTLR7” value on murine TLR7 is recorded as “activate mTLR7”. Besides, the “ability … in RAW-Blue™ Cells” value in assay [1] was “activate endogenous TLR2 and TLR7”. The “ability to transfect HEK293 cells” value in the assay on HEK293 cells is given as “transfect HEK293 cells”.

With `CCCCCCCCCCCCCCCC(=O)OCC(CSC[C@H](N)C(=O)NCCCNCCCCNCCCNC(=O)CNC(=O)c1ccc(Cn2c(O)nc3c(N)nc(NCCCC)nc32)cc1)OC(=O)CCCCCCCCCCCCCCC` (stereo partly drawn) [CL553, (20R)-20-amino-1-(4-((6-amino-2-(butylamino)-8-hydroxy-9H-purin-9-yl)methyl)phenyl)-1,4,19-trioxo-22-thia-2,5,9,14,18-pentaazapentacosane-24,25-diyl dipalmitate], on murine TLR7, the “ability to activate mTLR7” value was “activate mTLR7”. In assay [1], the “ability … in RAW-Blue™ Cells” value was “activate endogenous TLR2 and TLR7”. In the assay with HEK293 cells, the “ability to transfect HEK293 cells” value is reported as “transfect HEK293 cells”.

The values above are taken from patent publication EP2769738B1, “Conjugated TLR7 and/or TLR8 and TLR2 polycationic agonists” (Invivogen, priority 2013, dated 2014).
